# Where a SMILES comes first, the peptide text is derived from it. Bridges are numbered along the chain shown (N, C = ends).
# Columns and labels:
# Type in all cases: cell-based
# [1] = test system: Kv1.1; test: microelectrode voltage-clamp, Xenopus laevis oocytes, Kv1.1; conditions: 10 μM, 300-ms depolarization to +20 mV from -90 mV, pH 7.5, 19-23°C, n = 3
# Description: (§1) Briefly, plasmids were linearized, and transcription was carried out according to the standardized protocol. Afterwards, the capped cRNAs that encoded the related ion channels were prepared. To conduct transcription in vitro, firstly, NotL was utilized to linearize plasmids pCI that contained both Kv1.1 (Accession: NM_010595.3) and Kv2.1 (Accession: AF026005.1), whereas SphI was adopted to linearize plasmid PcDNA3 containing Kv1.2 (Accession: NM_012970.3) gene. […] Thereafter, the linearized plasmids were used as the templates to synthesize cRNAs in vitro using the large-scale T7 mMESSAGE mMACHINE transcription kit (Ambion, USA).
# (§2) A mature female X. laevis was placed on the ice for anesthesia, and then the Xenopus laevis oocytes at stage IV-VI were extracted. Subsequently, those extracted oocytes were treated by collagenase (1 mg/mL) contained within the calcium-depleted ND96 solution (containing 96 mM NaCl, 10 mM HEPES, 1 mM MgCl2, and 2 mM KCl) for defolliculation. […]
# (§3) Firstly, the effects of JZTX-X on the isoforms of potassium channels (including Kv1.1-1.3, Kv2.1, as well as Kv4.2-4.3) contained within the X. laevis oocytes were investigated through the microelectrode voltage-clamp approach. […] We also determined the effects of JZTX-X on Ito potassium channels in rat DRG neurons; those current amplitudes were inhibited by 54.4±6.8% when 500 nM JZTX-X was applied (Fig. 3K, n = 5).
# [2] = test system: Kv2.1; test: microelectrode voltage-clamp, Xenopus laevis oocytes, Kv2.1; conditions: 10 μM, 300-ms depolarization to +20 mV from -90 mV, pH 7.5, 19-23°C, n = 3
# Description: as §1, §2, §3
# [3] = test system: HVA Cav channels; test: whole-cell voltage-clamp, HVA Cav currents of rat DRG neurons; conditions: 10 μM, n = 3
# [4] = target: T1, Kv4.2 (Rattus norvegicus, UniProt Q63881); test: microelectrode voltage-clamp, Xenopus laevis oocytes, Kv4.2; conditions: +20 mV from -90 mV, n = 5, read-out: inhibition of Kv4.2 current
# T1 construct: expressed in transfected cells; host or cells: HEK293t
# T1 sequence (Q63881 1-630): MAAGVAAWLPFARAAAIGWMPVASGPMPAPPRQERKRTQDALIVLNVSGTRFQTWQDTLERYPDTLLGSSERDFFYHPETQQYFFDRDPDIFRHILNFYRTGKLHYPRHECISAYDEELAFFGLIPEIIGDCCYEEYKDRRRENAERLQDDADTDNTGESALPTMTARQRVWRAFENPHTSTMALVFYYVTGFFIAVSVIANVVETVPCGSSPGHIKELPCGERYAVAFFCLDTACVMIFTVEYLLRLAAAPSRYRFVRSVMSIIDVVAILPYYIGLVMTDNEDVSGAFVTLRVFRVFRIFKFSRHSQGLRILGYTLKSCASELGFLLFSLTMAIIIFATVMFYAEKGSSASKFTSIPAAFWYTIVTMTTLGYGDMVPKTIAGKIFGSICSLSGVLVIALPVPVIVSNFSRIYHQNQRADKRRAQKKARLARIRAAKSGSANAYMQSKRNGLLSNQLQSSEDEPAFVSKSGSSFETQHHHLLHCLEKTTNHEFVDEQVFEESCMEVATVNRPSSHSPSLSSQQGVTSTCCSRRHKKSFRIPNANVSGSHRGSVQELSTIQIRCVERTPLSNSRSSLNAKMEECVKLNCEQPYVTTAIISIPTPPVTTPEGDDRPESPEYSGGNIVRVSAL
# Excerpt: Rat cDNA genes encoding Kv4.2 (Accession: NM_031730.2) and Kv4.3 (Accession: AB003587.1) were subcloned to vector pcDNA3.1. In addition, human cDNA genes encoding Nav1.7 (Accession: DQ857292.1) and Nav1.5 (Accession: AB158469.2) were subcloned to vectors pcDNA3.1-mod and pcDNA3.1, separately. Then, Kv4.2, Kv4.3, Nav1.5 and Nav1.7 constructs were transiently transfected into the human embryonic kidney 293t (HEK293t) cells using lipofectamine 2000 (Invitrogen, USA) in accordance with manufacturer protocols. Thereafter, HEK293 cells were inoculated within Dulbecco’s modified Eagle’s medium (DMEM) containing 10% fetal bovine serum (FBS) at 5% CO2 and 37°C. The Kv4.3 channel and the Kv4.2 counterpart were then transfected in the absence of β subunit. Subsequently, cells were incubated with a DNA-lipofectamine mixture (one reporter plasmid for green fluorescence protein and channel constructs) for 4-6 h, and were washed with the fresh medium.
# Briefly, plasmids were linearized, and transcription was carried out according to the standardized protocol. Afterwards, the capped cRNAs that encoded the related ion channels were prepared. […]
smiles,measurement,setting,value
"CC(C)C[C@@H]1NC(=O)[C@H](CCCCN)NC(=O)[C@H](Cc2ccc(O)cc2)NC(=O)[C@@H]2CSSC[C@@H]3NC(=O)[C@H](Cc4ccc(O)cc4)NC(=O)[C@H](Cc4ccccc4)NC(=O)CNC(=O)[C@H](C)NC(=O)[C@H](CSSC[C@H](NC(=O)[C@@H](N)CC(C)C)C(=O)N[C@@H](CO)C(=O)N[C@@H](CCCNC(=N)N)C(=O)N[C@@H](CCC(=O)O)C(=O)NCC(=O)N[C@@H](CCC(=O)O)C(=O)N[C@@H](Cc4ccccc4)C(=O)N2)NC(=O)[C@H](CSSC[C@@H](C(=O)N[C@@H](Cc2ccc(O)cc2)C(=O)N[C@@H](CCCNC(=N)N)C(=O)N[C@@H](CC(N)=O)C(=O)O)NC(=O)[C@H](Cc2c[nH]cn2)NC(=O)[C@H](CC(C)C)NC(=O)[C@H](C(C)C)NC(=O)[C@H](Cc2ccccc2)NC(=O)[C@H](C)NC(=O)[C@H](CCCCN)NC3=O)NC(=O)[C@H](CCCCN)NC(=O)[C@H](CCCNC(=N)N)NC1=O [JZTX-X, Jingzhaotoxin-X] (H-LCSREGEFCYKLRKCCAGFYCKAFVLHCYRN-OH; disulfide 2-16, 9-21, 15-28; N-terminus assumed)",inhibition of Kv1.1 current,[1],less than 5%
same,inhibition of Kv2.1 current,[2],less than 5%
same,inhibition of HVA Cav current,[3],less than 5%
same,inhibition at 0.1 µM,[4]; 0.1 μM (100 nM),57.8 ± 4.6%
same,inhibition at 0.5 µM,[4]; 0.5 μM (500 nM),83.8 ± 5.1%

# Source: PMC7269146, “Jingzhaotoxin-X, a gating modifier of Kv4.2 and Kv4.3 potassium channels purified from the venom of the Chinese tarantula Chilobrachys jingzhao” (The Journal of Venomous Animals and Toxins Including …, 2020)
